Patent US20100286174A1, “INHIBITING GSNOR” (Duke University, priority 2009, published 2010)

Test system: diabetic nephropathy
Assay: Treatment of patient with diabetic nephropathy (Working Example IV)
Format: in vivo, human
Conditions: person, creatinine of 3 at start; final concentration 6 micromolar; follow up 2 months later
Description: A person with diabetic nephropathy and creatinine of 3 is started on compound 6 at a final concentration of 6 micromolar and at follow up 2 months later, the creatinine is 2.

`CC(=O)CCc1ccc(-c2ccccc2)n1-c1ccc(C(C)=O)cc1` [compound 6] was tested. Which creatinine did it give?
Its creatinine is 2.
